Assay results as given in patent publication US12344646B2, “Antibody-TNF α fusion protein and its preparation and applications” (priority 2018, dated 2025).
Starred links: 1 amine or outer side, 2 acyl side, 3 side chain; linkers in the order of their positions; H or OH if unused. Positions of bridges follow the written chain, without caps; N, C: chain ends. Non-standard residues stand in square brackets, D forms with d. Residues, ends and D or L forms follow the SMILES beside them. Chains are numbered I, II in the order given. Actinocin(9to1) = Cc1c2oc3c(C)ccc(C(=O)[*:1])c3nc-2c(C(=O)[*:2])c(N)c1=O; NMeV = CN[C@H](C(=O)O)C(C)C; Sar = CNCC(=O)O

Key:
SKBR-3 cells = assay: Synergistic apoptosis with chemotherapeutic, SKBR-3; assay type: cell-based, human; details: 15 nM actinomycin D alone
Method: (§1) FIG. 9A: Her-2 positive human tumor cells (NCI-N87, SKBR-3 and SKOV-3) were cultured in the presence of the fusion protein, actinomycin D or both for 1 day; and cell viability was detected using a CCK-8 kit.
(§2) In the following, the Her-2 positive tumor cells were all obtained from the Cell Bank of the Chinese Academy of Sciences. […] Cell viability was detected by MTT assay.

NCI-N87 cells = assay: Synergistic apoptosis with chemotherapeutic, NCI-N87; assay type: cell-based, human; design: effect on viability of NCI-N87 cells: dose or concentration left out as unconfirmed
Source text: FIG. […]
as §2

SKOV-3 cells = assay: Synergistic apoptosis with chemotherapeutic, SKOV-3; assay type: cell-based, human; details: 15 nM actinomycin D alone
Method: as §1, §2

BT-474 cells = assay: Synergistic apoptosis with chemotherapeutic, BT-474; assay type: cell-based, human; details: 33 μM or 11 μM doxorubicin alone
[1] = system: Her-2 positive human gastric cancer cells NCI-N87; assay: Cytotoxicity of Her-2 antibody-TNFα fusion protein on NCI-N87 cells; assay type: cell-based; details: at concentrations corresponding to the fusion protein below 20 ng/ml
Method: FIG. 7A: the NCI-N87 cells were incubated with the antibody-TNFα fusion protein at different concentrations for 1 day; and cell survival was detected using a CCK-8 kit.
The day before experiment, the cells ([…]) in growth medium (150 μl) were added onto a 96-well plate. […] Cell viability was detected using MTT assay and cell viability using CCK-8.

Cc1c2oc3c(C)ccc(C(=O)N[C@@H]4C(=O)N[C@H](C(C)C)C(=O)N5CCC[C@H]5C(=O)N(C)CC(=O)N(C)[C@@H](C(C)C)C(=O)O[C@@H]4C)c3nc-2c(C(=O)N[C@@H]2C(=O)N[C@H](C(C)C)C(=O)N3CCC[C@H]3C(=O)N(C)CC(=O)N(C)[C@@H](C(C)C)C(=O)O[C@@H]2C)c(N)c1=O [actinomycin D] (I: T[dV]P[Sar][NMeV] / II: T[dV]P[Sar][NMeV]; ester I:1-I:C, II:1-II:C; linker I:N-II:N via Actinocin(9to1))
apoptosis in SKBR-3 cells (SKBR-3 cells): 70%
apoptosis in NCI-N87 cells (NCI-N87 cells; 15 nM actinomycin D alone): 25%
impact on survival of SKOV-3 cells (SKOV-3 cells): Neither 100 ng/ml of Trastuzumab-TNFα fusion protein nor 15 nM of actinomycin D, when used alone, had an impact on survival of SKOV-3 cells

COc1cccc2c1C(=O)c1c(O)c3c(c(O)c1C2=O)C[C@@](O)(C(=O)CO)C[C@@H]3O[C@H]1C[C@H](N)[C@H](O)[C@H](C)O1 [doxorubicin]
effect on viability of NCI-N87 cells (NCI-N87 cells): little effect on viability
effect on viability of BT-474 cells (BT-474 cells): little effect on viability

TNFα
apoptosis in NCI-N87 cells [1]: induced no or little apoptosis
